Test results as given in PubChem BioAssay (NCI).
Several values for one entry are separate records, joined by “and”; a condition that tells them apart may be missing. Equal values may be shown once.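 Grown in 96-well plates, cells were treated for 48 hours with each compound at five concentrations. Insufficient inhibition: endpoint recorded as highest concentration tested. At the GI50, growth is halved. At the TGI there is no net growth.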

Tests used:
Assay in all cases: NCI-60 cell line screen, 48 h
NCI-H460 lung = tested on: NCI-H460 lung
M14 melanoma = tested on: M14 melanoma
MOLT-4 leukemia = tested on: MOLT-4 leukemia
HCT-116 colon = tested on: HCT-116 colon
TK-10 renal = tested on: TK-10 renal
HT29 colon = tested on: HT29 colon
T-47D breast = tested on: T-47D breast
UACC-257 melanoma = tested on: UACC-257 melanoma
SF-539 CNS = tested on: SF-539 CNS
DU-145 prostate = tested on: DU-145 prostate

COC(C(=O)[C@@H](O)[C@@H](C)O)[C@@H]1Cc2cc3cc(O[C@H]4C[C@@H](O[C@H]5C[C@@H](O)[C@H](O)C(C)O5)[C@H](O)C(C)O4)c(C)c(O)c3c(O)c2C(=O)[C@H]1O[C@H]1C[C@@H](O[C@H]2C[C@@H](O[C@H]3C[C@@H](O)[C@H](OC)C(C)O3)[C@@H](O)C(C)O2)[C@H](O)C(C)O1 (some centres not stated) gave a GI50 (NCI-H460 lung) of 0.0132 µM, a TGI (NCI-H460 lung) greater than 33.3 µM and a GI50 (M14 melanoma) of 0.0372 µM. It also gave a TGI (M14 melanoma) of 0.349 µM, a GI50 (MOLT-4 leukemia) of 0.0231 µM and a TGI (MOLT-4 leukemia) of 0.219 µM. For the same molecule, the GI50 (HCT-116 colon) was 0.0112 µM, the TGI (HCT-116 colon) was greater than 33.3 µM and the TGI (TK-10 renal) was 0.322 µM. The TGI (HT29 colon) was 0.131 µM, the GI50 (T-47D breast) was 0.0139 µM and the TGI (T-47D breast) was 0.237 µM. For the same molecule, the GI50 (UACC-257 melanoma) was 0.013 µM, the TGI (UACC-257 melanoma) was 0.101 µM and the GI50 (SF-539 CNS) was 0.0142 µM. It also gave a TGI (SF-539 CNS) of 0.101 µM, a GI50 (DU-145 prostate) of 0.0188 µM and a TGI (DU-145 prostate) greater than 33.3 µM.

With Cc1ncc([N+](=O)[O-])n1CCNS(=O)(=O)CCCn1ncnc1[N+](=O)[O-] the TGI (NCI-H460 lung) was greater than 100 µM, the TGI (M14 melanoma) was greater than 100 µM and the TGI (MOLT-4 leukemia) was greater than 100 µM. The TGI (HCT-116 colon) was greater than 100 µM, the TGI (TK-10 renal) was greater than 100 µM and the TGI (HT29 colon) was greater than 100 µM. For the same molecule, the TGI (T-47D breast) was greater than 100 µM, the TGI (UACC-257 melanoma) was greater than 100 µM and the TGI (SF-539 CNS) was greater than 100 µM. The TGI (DU-145 prostate) was greater than 100 µM.

N#Cc1ccc(OC(=O)Nc2ccc(Cl)c(Cl)c2)cc1 showed a GI50 (NCI-H460 lung) of 2.87 µM, a TGI (NCI-H460 lung) of 9.34 µM and a GI50 (M14 melanoma) of 4.3 µM. The TGI (M14 melanoma) was 59 µM, the GI50 (MOLT-4 leukemia) was 3.71 µM and the TGI (MOLT-4 leukemia) was 27.8 µM. It also gave a GI50 (HCT-116 colon) of 3.4 µM, a TGI (HCT-116 colon) greater than 100 µM and a GI50 (TK-10 renal) of 3.85 µM. For the same molecule, the TGI (TK-10 renal) was 33.9 µM, the GI50 (HT29 colon) was 3.35 µM and the TGI (HT29 colon) was 28.6 µM. It also gave a GI50 (T-47D breast) of 3.15 µM, a TGI (T-47D breast) of 12.8 µM and a GI50 (UACC-257 melanoma) of 4.07 µM. For the same molecule, the TGI (UACC-257 melanoma) was 23.9 µM, the GI50 (SF-539 CNS) was 4.43 µM and the TGI (SF-539 CNS) was 33 µM. For the same molecule, the GI50 (DU-145 prostate) was 4.13 µM and the TGI (DU-145 prostate) was greater than 100 µM.

For O=c1[nH]c(=O)n([C@H]2CCCO2)cc1F, the GI50 (NCI-H460 lung) was 291 µM, the TGI (NCI-H460 lung) was 830 µM and > 3640 µM and the GI50 (M14 melanoma) was 1450 µM. For the same molecule, the TGI (M14 melanoma) was greater than 5000 µM, the GI50 (MOLT-4 leukemia) was greater than 3500 µM and the TGI (MOLT-4 leukemia) was greater than 5000 µM. The GI50 (HCT-116 colon) was 1020 µM, the TGI (HCT-116 colon) was greater than 5000 µM and the GI50 (TK-10 renal) was 1880 µM. The TGI (TK-10 renal) was greater than 5000 µM, the GI50 (HT29 colon) was 1370 µM and the TGI (HT29 colon) was greater than 5000 µM. The GI50 (T-47D breast) was 2610 µM, the TGI (T-47D breast) was greater than 5000 µM and the GI50 (UACC-257 melanoma) was 3540 µM. For the same molecule, the TGI (UACC-257 melanoma) was greater than 5000 µM, the GI50 (SF-539 CNS) was 374 µM and the TGI (SF-539 CNS) was 864 µM and 3520 µM. The GI50 (DU-145 prostate) was 910 µM and the TGI (DU-145 prostate) was greater than 5000 µM.

CO/N=C(/C)c1cccc(Nc2cc(-c3ccccc3)nc3ccc(OC)cc23)c1 gave a GI50 (NCI-H460 lung) of 7.07 µM, a TGI (NCI-H460 lung) greater than 100 µM and a GI50 (M14 melanoma) of 6.92 µM. It also gave a TGI (M14 melanoma) of 25.3 µM, a GI50 (MOLT-4 leukemia) of 3.05 µM and a TGI (MOLT-4 leukemia) greater than 100 µM. For the same molecule, the GI50 (HCT-116 colon) was 4.25 µM, the TGI (HCT-116 colon) was 18.4 µM and the GI50 (TK-10 renal) was 3.32 µM. The TGI (TK-10 renal) was 12.8 µM, the GI50 (HT29 colon) was 34.1 µM and the TGI (HT29 colon) was greater than 100 µM. The GI50 (T-47D breast) was 71 µM, the TGI (T-47D breast) was greater than 100 µM and the GI50 (UACC-257 melanoma) was 18.4 µM. The TGI (UACC-257 melanoma) was 43.2 µM, the GI50 (SF-539 CNS) was 2.45 µM and the TGI (SF-539 CNS) was 4.89 µM. The GI50 (DU-145 prostate) was 12 µM and the TGI (DU-145 prostate) was 31.5 µM.

For CC[C@@]1(O)C(=O)OCc2c1cc1n(c2=O)Cc2c-1nc1cc(F)c(C)c3c1c2[C@@H](N)CC3, the GI50 (NCI-H460 lung) was less than 0.01 µM, the TGI (NCI-H460 lung) was greater than 33.7 µM and the GI50 (M14 melanoma) was less than 0.01 µM. For the same molecule, the TGI (M14 melanoma) was 0.111 µM, the GI50 (MOLT-4 leukemia) was less than 0.01 µM and the TGI (MOLT-4 leukemia) was greater than 100 µM. It also gave a GI50 (HCT-116 colon) of less than 0.01 µM, a TGI (HCT-116 colon) of 12.3 µM and a GI50 (TK-10 renal) of 0.0725 µM. For the same molecule, the GI50 (HT29 colon) was less than 0.01 µM, the TGI (HT29 colon) was greater than 100 µM and the GI50 (T-47D breast) was less than 0.01 µM. For the same molecule, the TGI (T-47D breast) was greater than 100 µM, the GI50 (UACC-257 melanoma) was less than 0.0151 µM and the TGI (UACC-257 melanoma) was 0.981 µM. It also gave a GI50 (SF-539 CNS) of less than 0.01 µM, a TGI (SF-539 CNS) of 0.0187 µM and a GI50 (DU-145 prostate) of less than 0.01 µM. For the same molecule, the TGI (DU-145 prostate) was greater than 100 µM.

With S=C1SC2=Nc3ccccc3CN2C2=NCCN12 the GI50 (NCI-H460 lung) was greater than 100 µM, the TGI (NCI-H460 lung) was greater than 100 µM and the GI50 (M14 melanoma) was greater than 100 µM. For the same molecule, the TGI (M14 melanoma) was greater than 100 µM, the GI50 (MOLT-4 leukemia) was 39.9 µM and the TGI (MOLT-4 leukemia) was greater than 100 µM. For the same molecule, the GI50 (HCT-116 colon) was 52.8 µM, the TGI (HCT-116 colon) was greater than 100 µM and the GI50 (TK-10 renal) was greater than 100 µM. For the same molecule, the TGI (TK-10 renal) was greater than 100 µM, the GI50 (HT29 colon) was 34.7 µM and the TGI (HT29 colon) was greater than 100 µM. For the same molecule, the GI50 (T-47D breast) was 78.5 µM, the TGI (T-47D breast) was greater than 100 µM and the GI50 (UACC-257 melanoma) was greater than 100 µM. The TGI (UACC-257 melanoma) was greater than 100 µM, the GI50 (SF-539 CNS) was greater than 100 µM and the TGI (SF-539 CNS) was greater than 100 µM. For the same molecule, the GI50 (DU-145 prostate) was greater than 100 µM and the TGI (DU-145 prostate) was greater than 100 µM.

Work on Nc1nc(N)nc(CCCc2nc(N)nc(N)n2)n1 yielded a TGI (NCI-H460 lung) greater than 100 µM, a TGI (M14 melanoma) greater than 100 µM and a TGI (MOLT-4 leukemia) greater than 100 µM. The TGI (HCT-116 colon) was greater than 100 µM, the TGI (TK-10 renal) was greater than 100 µM and the TGI (HT29 colon) was greater than 100 µM. It also gave a TGI (T-47D breast) greater than 100 µM, a TGI (UACC-257 melanoma) greater than 100 µM and a TGI (SF-539 CNS) greater than 100 µM. The TGI (DU-145 prostate) was greater than 100 µM.
